Results as given in patent US20260151457A1, “Peptides and Fragments for Treating Diabetes and Associated Metabolic Diseases” (Betavive Ltd., priority 2024, published 2026).
Where no end group is shown, it is not given here.

Experiments:
STZ-treated mouse islets [1] = experiment: Insulin secretion from STZ-treated mouse islets; format: cell-based; settings: islets treated with 2.5 mM STZ; IGF-2 50 nM and 500 nM, GLP-1 100 nM and 1000 nM; 48 hours
Procedure: Mouse islet cells were treated with 2.5 mM STZ and subsequently treated with either IGF-2 (FA) at 50 nM and 500 nM, or with GLP-1 at 100 nM and 1000 nM.

STZ-treated mouse islets [2] = experiment: MTT viability of STZ-treated mouse islets; format: cell-based; settings: increasing concentrations
From the text: Yellow dye MTT is converted to a purple dye by mitochondrial reductase in viable cells. Therefore, the amount of purple dye present determined by measuring optical density of cells at 570 nm serves as a measurement of cell viability.

β-MIN6 cells = experiment: Insulin secretion of β-MIN6 cells following glucose induction; format: cell-based, mouse; settings: IGF-2 5 nM, 20 nM, 80 nM, 1 week treatment
From the text: β-MIN6 cells serve as an in vitro model of mouse pancreatic islets. β-MIN6 cells were used as an in vitro model to measure the effects of treatment with IGF-2.

db/db mice = experiment: Peptide efficacy on type 2 diabetes (db/db mice): pancreas H&E and IHC; format: in vivo
Procedure: Male db/db mice (BKS.Cg-Dock7m+/+Leprdb/J) were administered Peptide 16 and Peptide 20 via intraperitoneal injection once daily for 35 consecutive days. Peptide 16 was administered at a dose of 5.5 mg/kg, while Peptide 20 was administered at 3.9 mg/kg. The control group received saline. Throughout the treatment period, mice were monitored for body weight and behavioral changes. At the end of the study, mice were sacrificed, and blood samples were collected for C-peptide level measurement. The pancreas was harvested for pathological analysis, including hematoxylin and eosin (H&E) staining and immunohistochemistry (IHC). Results appear in FIG. 37. All pancreatic tissue sections were stained with hematoxylin and eosin (H&E). […] Results appear in FIG. 38.

Human pancreatic islets = experiment: Peptides efficacy on human pancreatic islets (IHC, digital quantitative pathological analysis); format: cell-based
Procedure: Human pancreatic islets, obtained from Prodo Labs, were cultured in Prodo Labs PIM(S) media and maintained at 37° C. with 5% CO2 to ensure optimal viability. The islets were treated with IGF-2 (500 nM) and Peptide-20 (1000 nM) for five days under continuous exposure. After treatment, islets were collected and fixed in 4% paraformaldehyde (PFA) to preserve cellular and structural integrity. The samples were then processed for formalin-fixed paraffin-embedded (FFPE) histology. Sectioned islets were stained using immunohistochemistry (IHC) with specific markers to assess islet integrity, β-cell function, and proliferation. Microscopic Digital Quantitative Pathological Analysis provided critical insights into the effects of IGF-2 and Peptide-20 on islet structure and function. […] These findings establish Peptide-20 as a strong candidate for novel diabetes therapies aimed at restoring islet function and reversing β-cell loss. […] Their ability to enhance β-cell survival and proliferation positions them as strong candidates for the development of novel regenerative therapies, paving the way for innovative drug development aimed at reversing diabetes and restoring endogenous insulin production.

mice = experiment: Blood glucose concentration kinetics of IGF-2 vs. insulin in a glucose tolerance test; format: in vivo
Procedure: IGF-2 therefore provides an effect that mimics insulin within the body, and that effect is referred to herein as an “insulinomimetic” effect. […] More specifically, when 1 unit of insulin per kg was administered, the recovery in glucose levels began after two hours. But when 800 μg/kg of IGF-2 was administered, the recovery in glucose levels began after six hours. […] In this example, administering IGF-2 can provide better results than administering insulin with respect to blood glucose levels, even when only a single dose was used. Without being bound by this theory, it is possible that the IGF-2 combines with a number of binding proteins in the blood and its active free form is then released slowly from the complex.

[3] = Peptide-20 1000 nM for five days

Q: Which Insulin secretion (STZ-treated mouse islets [1]) does the source give for “GLP-1 (HAEGTFTSDVSSYLEGQAAKEFIAWLVKGR; ends and bridges not checked; UniProt P01275 98-127, looked up) [a satiety hormone, comparator in vitro, reference compound]” here?
A: The Insulin secretion was “did not significantly increase insulin secretion”.

Q: And the “Mouse islet viability (MTT, optical density at 570 nm)” value (STZ-treated mouse islets [2])?
A: The value was “did not significantly increase mouse islet viability”.

Q: And the “Insulin secretion following glucose induction” value (β-MIN6 cells)?
A: Its value is “does not increase insulin secretion”.

Q: What does the source list for RSRGIVEECCFRICDLALLE [Peptide 20]?
A: Islets of Langerhans in the pancreas (IHC) (db/db mice; Peptide 20 3.9 mg/kg i.p. once daily for 35 days): regenerating the islets of Langerhans; Islets of Langerhans in pancreatic tissue sections (H&E) (db/db mice; i.p. once daily for 35 days, Peptide 16 5.5 mg/kg, Peptide 20 3.9 mg/kg): regenerating the islets of Langerhans; Pancreatic islet regeneration, integrity and function (Human pancreatic islets; IGF-2 500 nM, Peptide-20 1000 nM, five days): enhances human pancreatic islet regeneration and function; Islet area (Human pancreatic islets; [3]): significant increase; Total insulin signal intensity (Human pancreatic islets; [3]): significant increase; β-cell proliferation (Human pancreatic islets; [3]): significant increase

Q: Which results are given for insulin [reference compound]?
A: Glucose level after administration (mice; glucose tolerance test in mice): decreased; Time after which the recovery in glucose levels began (mice; insulin 1 unit per kg, IGF-2 800 μg/kg, single dose): two
